For 39 compounds, IC50 results are on record in US10710986B2, “PD-1/PD-L1 inhibitors” (Gilead Sciences, Inc., priority 2018, dated 2020).

This experiment concerns the target PD-1/PD-L1 (Homo sapiens (Human), UniProt Q9NZQ7). As to the kind of experiment: PD-1/PD-L1 biochemical protein-protein interaction assay (ALPHA). The conditions noted are these: 0.3 nM His tagged PD-L1, 2.5 nM biotinylated Fc-PD-1, 60 minutes at 25° C., read-out: IC50 PD-L1-PD1.

Molecules are shown by their SMILES.

Sequence of PD-1/PD-L1 (Q9NZQ7 19-238): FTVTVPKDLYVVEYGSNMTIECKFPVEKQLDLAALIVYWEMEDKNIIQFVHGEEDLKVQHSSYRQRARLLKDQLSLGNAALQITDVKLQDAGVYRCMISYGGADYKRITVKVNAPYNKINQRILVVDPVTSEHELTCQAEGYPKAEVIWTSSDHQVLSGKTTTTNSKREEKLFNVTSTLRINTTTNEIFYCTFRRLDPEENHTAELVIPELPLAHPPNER

With `COc1nc(-c2cccc(-c3cccc(-c4cnc(CN[C@H]5C[C@](C)(O)C5)c(OC)n4)c3Cl)c2Cl)cnc1CN[C@H]1C[C@](C)(O)C1` [compound 561], the IC50 – broadly, the concentration that gives 50% inhibition – amounted to 0.164 nM.

Turning to `COc1nc(-c2cccc(-c3cccc(-c4cnc(CNC[C@H]5C[C@@](C)(O)C5)c(OC)n4)c3Cl)c2Cl)cnc1CNC[C@H]1C[C@@](C)(O)C1` [compound 562], the IC50 came out at 0.151 nM.

Turning to `COc1nc(-c2cccc(-c3cccc(-c4cnc(CNC[C@H]5C[C@](C)(O)C5)c(OC)n4)c3Cl)c2Cl)cnc1CNC[C@H]1C[C@](C)(O)C1` [compound 563], the IC50 is 0.431 nM.

Turning to `COc1nc(-c2cccc(-c3cccc(-c4cnc(CN[C@H]5C[C@](C)(O)C5)c(OC)n4)c3Cl)c2Cl)cnc1CNC[C@@H]1CCC(=O)N1` [compound 564], the IC50 amounted to 0.2 nM.

On to `COc1nc(-c2cccc(-c3cccc(-c4cnc(CNC[C@H]5C[C@H](OC)C5)c(OC)n4)c3Cl)c2Cl)cnc1CNC[C@@H]1CCC(=O)N1` [compound 565], for which the IC50 was 0.43 nM.

With `COc1nc(-c2cccc(-c3cccc(-c4cnc(CNC[C@H]5C[C@@](C)(O)C5)c(OC)n4)c3Cl)c2Cl)cnc1CNC[C@@H]1CCC(=O)N1` [compound 566], the concentration for half-maximal inhibition (IC50) stood at 0.13 nM.

For `COc1nc(-c2cccc(-c3cccc(-c4cnc(CNC[C@H]5C[C@](C)(O)C5)c(OC)n4)c3Cl)c2Cl)cnc1CNC[C@@H]1CCC(=O)N1` [compound 567], the IC50 was 0.064 nM.

For the compound `COc1nc(-c2cccc(-c3cccc(-c4cnc(CNC[C@H]5CCS(=O)(=O)N5)c(OC)n4)c3Cl)c2Cl)cnc1CNC[C@H]1CCS(=O)(=O)N1` [compound 568], the IC50 was found to be 0.293 nM.

As to `COc1nc(-c2cccc(-c3cccc(-c4cnc(CNC[C@@H]5CCS(=O)(=O)N5)c(OC)n4)c3Cl)c2Cl)cnc1CNC[C@@H]1CCS(=O)(=O)N1` [compound 569], the IC50 worked out at 0.59 nM.

In the case of `COc1nc(-c2cccc(-c3cccc(-c4cnc(CNCCCN5CCCS5(=O)=O)c(OC)n4)c3Cl)c2Cl)cnc1CNCCCN1CCCS1(=O)=O` [compound 570], the IC50 amounted to 0.414 nM.

As for `COc1nc(-c2cccc(-c3cccc(-c4cnc(CN5CC(NS(N)(=O)=O)C5)c(OC)n4)c3Cl)c2Cl)cnc1CN1CC(NS(N)(=O)=O)C1` [compound 571], the IC50 was 0.064 nM.

For `CNS(=O)(=O)CCNCc1ncc(-c2cccc(-c3cccc(-c4cnc(CNC[C@@H]5CCC(=O)N5)c(OC)n4)c3Cl)c2Cl)nc1OC` [compound 572], the IC50 is 0.064 nM.

For the compound `COc1nc(-c2cccc(-c3cccc(-c4cnc(CNC[C@@H]5CCC(=O)N5)c(OC)n4)c3Cl)c2Cl)cnc1CNCCN1CCCS1(=O)=O` [compound 573], the half-maximal inhibitory concentration (IC50) stood at 0.089 nM.

Consider `COc1nc(-c2cccc(-c3cccc(-c4cnc(CN5CC(S(C)(=O)=O)C5)c(OC)n4)c3Cl)c2Cl)cnc1CNC[C@@H]1CCC(=O)N1` [compound 574], for which the IC50 worked out at 0.133 nM.

For the compound `COc1nc(-c2cccc(-c3cccc(-c4cnc(CNCCNS(C)(=O)=O)c(OC)n4)c3Cl)c2Cl)cnc1CNCCNS(C)(=O)=O` [compound 575], the IC50 was 0.064 nM.

For the compound `COc1nc(-c2cccc(-c3cccc(-c4cnc(CNCC5CCS(=O)(=O)N5)c(OC)n4)c3Cl)c2Cl)cnc1CNCC1CCS(=O)(=O)N1` (stereo not drawn) [compound 576], the IC50 was determined as 0.641 nM.

As to `COc1nc(-c2cccc(-c3cccc(-c4cnc(CNC[C@@H]5CCC(=O)N5)c(OC)n4)c3Cl)c2Cl)cnc1CNCCCS(N)(=O)=O` [compound 577], the half-maximal inhibitory concentration (IC50) was 0.064 nM.

Turning to `CCNC(=O)CNCc1ncc(-c2cccc(-c3cccc(-c4cnc(CNC[C@@H]5CCC(=O)N5)c(OC)n4)c3Cl)c2Cl)nc1OC` [compound 578], the IC50 amounted to 0.182 nM.

As to `COc1nc(-c2cccc(-c3cccc(-c4cnc(CNC[C@H]5CCOC5)c(OC)n4)c3Cl)c2Cl)cnc1CNC[C@H]1CCOC1` [compound 579], the IC50 is 0.782 nM.

Turning to `COc1nc(-c2cccc(-c3cccc(-c4cnc(CN(C)C[C@@H]5CCC(=O)N5)c(OC)n4)c3Cl)c2Cl)cnc1CNC[C@@H]1CCC(=O)N1` [compound 580], the IC50 was 0.359 nM.

In the case of `COc1nc(-c2cccc(-c3cccc(-c4cnc(CNC[C@@H]5CCC(=O)N5)c(OC)n4)c3Cl)c2Cl)cnc1CNCC(=O)NC(C)C` [compound 581], the IC50 worked out at 0.201 nM.

In the case of `COc1nc(-c2cccc(-c3cccc(-c4cnc(C5=NCCN5)c(OC)n4)c3Cl)c2Cl)ccc1CN` [compound 582], the IC50 turned out to be 0.19 nM.

Take `COc1nc(-c2cccc(-c3cccc(-c4cnc(CN)c(OC)n4)c3Cl)c2Cl)ccc1C1=NCCN1` [compound 583]: the IC50 turned out to be 0.064 nM.

With `COc1nc(-c2cccc(-c3cccc(-c4cnc(C5=NCCN5)c(OC)n4)c3Cl)c2Cl)cnc1CN` [compound 584], the IC50 was determined as 0.118 nM.

As to `COc1nc(-c2cccc(-c3cccc(-c4cnc(CN5CC[C@H](C(=O)O)C5)c(OC)n4)c3Cl)c2Cl)cnc1CN` [compound 585], the IC50 stood at 0.442 nM.

For the compound `COc1nc(-c2cccc(-c3cccc(-c4cnc(CN5CC[C@H](O)C5)c(OC)n4)c3Cl)c2Cl)cnc1CN` [compound 586], the IC50 amounted to 0.29 nM.

Regarding `COc1nc(-c2cccc(-c3cccc(-c4cnc(CN5CC[C@@H](O)C5)c(OC)n4)c3Cl)c2Cl)cnc1CN` [compound 587], the concentration for half-maximal inhibition (IC50) was found to be 0.515 nM.

In the case of `COc1nc(-c2cccc(-c3cccc(-c4cnc(CNCC5(O)COC5)c(OC)n4)c3Cl)c2Cl)cnc1CNCC1(O)COC1` [compound 588], the IC50 stood at 0.17 nM.

`COc1nc(-c2cccc(-c3cccc(-c4cnc(CNCC5(O)COC5)c(OC)n4)c3Cl)c2Cl)cnc1CNC[C@@H]1CCC(=O)N1` [compound 589]: the IC50 is 0.291 nM.

Consider `COc1nc(-c2cccc(-c3cccc(-c4cnc(CN[C@H](C5CC5)[C@@H]5CCC(=O)N5)c(OC)n4)c3Cl)c2Cl)cnc1CN[C@H](C1CC1)[C@@H]1CCC(=O)N1` [compound 590], for which the IC50 was 0.131 nM.

In the case of `COc1nc(-c2cccc(-c3cccc(-c4cnc(CN5CC6(CNC(=O)C6)C5)c(OC)n4)c3Cl)c2Cl)cnc1CN` [compound 591], the IC50 came out at 0.138 nM.

Regarding `COc1nc(-c2cccc(-c3cccc(-c4cnc(CNC5CC(C)(O)C5)c(OC)n4)c3Cl)c2Cl)cnc1CN` (stereo not drawn) [compound 592], the IC50 turned out to be 0.151 nM.

As to `COc1nc(-c2cccc(-c3cccc(-c4cnc(CN5CC(O)C5)c(OC)n4)c3Cl)c2Cl)cnc1CN` [compound 594], the IC50 was 0.12 nM.

Turning to `COc1nc(-c2cccc(-c3cccc(-c4cnc(CN5CC6(CCC(=O)N6)C5)c(OC)n4)c3Cl)c2Cl)cnc1CN` [compound 595], the IC50 was 0.064 nM.

On to `COc1nc(-c2cccc(-c3cccc(-c4cnc(CN5CC(C)(O)C5)c(OC)n4)c3Cl)c2Cl)cnc1CN` [compound 596], for which the IC50 was determined as 0.181 nM.

Regarding `COc1nc(-c2cccc(-c3cccc(-c4cnc(CN5CC6(C5)CN(C(C)=O)C6)c(OC)n4)c3Cl)c2Cl)cnc1CN` [compound 597], the half-inhibitory concentration (IC50) is 0.129 nM.

Turning to `COc1nc(-c2cccc(-c3cccc(-c4cnc(CN[C@@H](C)[C@H]5CCC(=O)N5)c(OC)n4)c3Cl)c2Cl)cnc1CNC[C@@H]1CCC(=O)N1` [compound 598], the concentration for half-maximal inhibition (IC50) was 0.178 nM.

Consider `COc1nc(-c2cccc(-c3cccc(-c4cnc(CN[C@H](C)[C@@H]5CCC(=O)N5)c(OC)n4)c3Cl)c2Cl)cnc1CNC[C@@H]1CCC(=O)N1` [compound 599], for which the IC50 came to 0.174 nM.

For `COc1nc(-c2cccc(-c3cccc(-c4cnc(CN[C@H]5C[C@@](O)(CO)C5)c(OC)n4)c3Cl)c2Cl)cnc1CNC[C@@H]1CCC(=O)N1` [compound 600], the IC50 was determined as 0.064 nM.
